Read-outs that look alike come from different tables or passages of the source.
Key:
[1] = test system: HIV clinical isolated, characterised by mutations in the RT gene inducing geno-phenotypic resistance to AZT; test: p24 production susceptibility test (ACTG protocol), Table 1; assay type: cell-based, HIV-1; conditions: for EC50: Human immunodeficiency virus 1, PBMC; for S.I. HCQ: I.C.50/E.C.50; for Fen. HCQ (fold): ratio to HIV-IIIB
Excerpt: (§1) For the phenotype of the nucleosidic, non-nucleosidic and proteases inhibitors was utilised a method which consider the use of human PBMC and the protocol standardised by the AIDS Clinical Trials Group, after verifying the genotype by sequence analysis.
(§2) In order to assay in vitro the susceptibility to chloroquine and hydroxychloroquine of the viral strains, it was used the protocol of the ACTG which is characterised by the measure, of the production of antigen p24 in strongly infected cells.
(§3) The susceptibility of the viral strains to chemotherapics was determined in cell cultures, prepared in 96 wells microplates, using, for the infection, 0.1 MOI.
(§4) The supernatant of the infected cultures (either in absence or in presence of different concentrations of chemotherapic) were tested for the production of p24 after 7 days, using an ELISA test which is commercially available.
(§5) The concentrations of chloroquine and hydroxychloroquine tested ranged from 0.5 to 15 uM. At the same time non-infected cells were incubated with concentrations of chloroquine and hydroxychloroquine ranging from 0 to 50 uM to evaluate the toxicity of the compound.
(§6) After 4 day from the infection, half the cellular medium was replaced with a medium containing the corresponding dilution of chloroquine and hydroxychloroquine. The percentage of inhibition of the HIV replication, induced by chloroquine and hydroxychloroquine, was determined, after 7 day from the infection, comparing the levels of p24 of this cultures and that of the control, infected and not treated with chloroquine and hydroxychloroquine.
(§7) Therefore, the E.C.50 of chloroquine and hydroxychloroquine expresses the concentration of chemotherapic that inhibits the 50% of production of p24 and the values were calculated using linear and non linear regression analysis (the significativity for the non linear regression was R^2>0.95).
(§8) In the same experimental conditions and in the same day, but with similar concentrations of chloroquine and hydroxychloroquine, it was evaluated the vitality of the infect cell cultures, and this was expressed as I.C.50.
(§9) I.C.50 (Inhibitory Concentration) indicates the concentration of the chemotherapic agent inhibiting the vitality of the cell cultures at a rate of 50%, when there is not infection.

[2] = test system: HIV clinical isolated, characterised by mutations in the RT gene inducing geno-phenotypic resistance to ddI; test: p24 production susceptibility test (ACTG protocol), Table 2; assay type: cell-based, HIV-1; conditions: for EC50: Human immunodeficiency virus 1, PBMC, read-out: E.C.50 HCQ; for S.I. HCQ / Fen HCQ (fold): PBMC; for S.I. HCQ: I.C.50/E.C.50; for Fen HCQ (fold): ratio to HIV-IIIB
Excerpt: as §1, §2, §3, §4, §5, §6, §7, §8, §9

[3] = test system: HIV-1 strains geno-phenotypically resistant to EFV; test: p24 production susceptibility test, Table 7, MT-2 cells; assay type: cell-based; conditions: for EC50: Human immunodeficiency virus 1, MT2, MT-2, read-out: E.C.50 HCQ; for S.I. HCQ / Fen. HCQ (fold): MT-2; for S.I. HCQ: I.C.50/E.C.50; for Fen. HCQ (fold): ratio to HIV-IIIB
Excerpt: as §1, §2, §3, §4, §5, §6, §7, §8, §9

[4] = test system: HIV-1 clinical isolated, characterised by mutations in the protease gene inducing geno-phenotypic resistance to SQV; test: p24 production susceptibility test (ACTG protocol), Table 8; assay type: cell-based; conditions: for EC50: Human immunodeficiency virus 1, PBMC, read-out: E.C.50 HCQ; for S.I. HCQ / Fen. HCQ (fold): PBMC; for S.I. HCQ: I.C.50/E.C.50; for Fen. HCQ (fold): ratio to HIV-IIIB
Excerpt: as §1, §2, §3, §4, §5, §6, §7, §8, §9

[5] = test system: HIV-1 clinical isolated, characterised by mutations on the protease gene inducing geno-phenotypic resistance to NFV; test: p24 production susceptibility test (ACTG protocol), Table 10, PBMC; assay type: cell-based; conditions: for S.I. HCQ: I.C.50/E.C.50; for Fen. HCQ (fold): ratio to HIV-IIIB; for EC50: Human immunodeficiency virus 1, PBMC, read-out: E.C.50 HCQ
Excerpt: as §1, §2, §3, §4, §5, §6, §7, §8, §9

[6] = test system: HIV-1 clinical isolated, characterised by mutations on the protease gene inducing geno-phenotypic resistance to NFV; test: p24 production susceptibility test, Table 10, H-9 cells; assay type: cell-based; conditions: for S.I. HCQ / Fen. HCQ (fold): H-9; for S.I. HCQ: I.C.50/E.C.50; for Fen. HCQ (fold): ratio to HIV-IIIB; for EC50: Human immunodeficiency virus 1, H9, H-9, read-out: E.C.50 HCQ
Excerpt: as §1, §2, §3, §4, §5, §6, §7, §8, §9

HIV-1 = conditions: association hydroxychloroquine (400 mg/day) plus HU plus ddI, 48 weeks, Paton et al. 2002, cited from earlier work
[7] = PBMC, Gen. D67N K70R T215F K219Q
[8] = PBMC, Gen. D 67 Ns K 70N T215F K219Q
[9] = PBMC, Gen. M41I M184V L210W R221K T215Y
[10] = PBMC, Gen. M41L D67N K70RM 184V T215F
[11] = PBMC, Gen. M41LD 76N K70R T215Y
[12] = Gen M4IL M184V L210W R211KL 214F T215Y

**Q.** Which results are given for `CCN(CCO)CCCC(C)Nc1ccnc2cc(Cl)ccc12` (centres unmarked) [HCQ, hydroxychloroquine]?
**A.** EC50 ([1]; PBMC, Gen. D67N K70R T215F K219Q, read-out: E:C.50 HCQ): 2 µM; EC50 ([1]; PBMC, Gen. D 67 Ns K 70N T215F K219Q, read-out: E:C.50 HCQ): 2.5 µM; EC50 ([1]; PBMC, Gen. K70R T215F K219Q, read-out: E:C.50 HCQ): 2 µM; EC50 ([1]; PBMC, Gen. M41I M184V L210W R221K T215Y, read-out: E:C.50 HCQ): 1 µM; EC50 ([1]; PBMC, Gen. M41I T215Y, read-out: E:C.50 HCQ): 2.5 µM; EC50 ([1]; PBMC, Gen. M41L D67N K70RM 184V T215F, read-out: E:C.50 HCQ): 2.5 µM; EC50 ([1]; read-out: E:C.50 HCQ (uM), PBMC, Gen. M41LD 76N K70R T215Y): 2.8 µM; S.I. HCQ [1, 7]: 4; Fen. HCQ (fold) [1, 7]: 1.1X fold; S.I. HCQ [1, 8]: 3.6; Fen. HCQ (fold) [1, 8]: 1.6X fold; S.I. HCQ ([1]; PBMC, Gen. K70R T215F K219Q): 5; Fen. HCQ (fold) ([1]; PBMC, Gen. K70R T215F K219Q): 1.1X fold; S.I. HCQ [1, 9]: 7; Fen. HCQ (fold) [1, 9]: 0.5X fold; S.I. HCQ ([1]; PBMC, Gen. M41I T215Y): 4.5; Fen. HCQ (fold) ([1]; PBMC, Gen. M41I T215Y): 1.3X fold; S.I. HCQ [1, 10]: 3.6; Fen. HCQ (fold) [1, 10]: 1.3X fold; S.I. HCQ [1, 11]: 3.4; Fen. HCQ (fold) [1, 11]: 1.5X fold; EC50 ([2]; Gen D67N K70R M184V T215Y): 2500 nM; EC50 ([2]; Gen D67N K70R T215F K70R): 2500 nM; EC50 ([2]; Gen K70R T215F K219Q): 2000 nM; EC50 [2, 12]: 2500 nM; EC50 ([2]; Gen M41I T215F): 2500 nM; EC50 ([2]; Gen M41L D67N K70R M184V T215Y): 2500 nM; EC50 ([2]; Gen M41L D67N K70R T215Y): 2800 nM; S.I. HCQ ([2]; Gen D67N K70R M184V T215Y): 4.5; Fen HCQ (fold) ([2]; Gen D67N K70R M184V T215Y): 1.3X fold; S.I. HCQ ([2]; Gen D67N K70R T215F K70R): 3.4; Fen HCQ (fold) ([2]; Gen D67N K70R T215F K70R): 1.1X fold; S.I. HCQ ([2]; Gen K70R T215F K219Q): 5; Fen HCQ (fold) ([2]; Gen K70R T215F K219Q): 0.8X fold; S.I. HCQ [2, 12]: 4; Fen HCQ (fold) [2, 12]: 1.3X fold; S.I. HCQ ([2]; Gen M41I T215F): 4.5; Fen HCQ (fold) ([2]; Gen M41I T215F): 1.3X fold; S.I. HCQ ([2]; Gen M41L D67N K70R M184V T215Y): 3.6; Fen HCQ (fold) ([2]; Gen M41L D67N K70R M184V T215Y): 1.3X fold; S.I. HCQ ([2]; Gen M41L D67N K70R T215Y): 3.4; Fen HCQ (fold) ([2]; Gen M41L D67N K70R T215Y): 1.1X fold; EC50 ([3]; Gen. K101D K103N): 2500 nM; EC50 ([3]; Gen. K103N V108D): 2800 nM; EC50 ([3]; Gen. K103N Y181C): 2500 nM; EC50 ([3]; Gen. K103N): 2800 nM; EC50 ([3]; Gen. L100I K103N): 3200 nM; EC50 ([3]; Gen. Y181C): 1500 nM; S.I. HCQ ([3]; Gen. K101D K103N): 8.8; Fen. HCQ (fold) ([3]; Gen. K101D K103N): 1.6X fold; S.I. HCQ ([3]; Gen. K103N V108D): 7.8; Fen. HCQ (fold) ([3]; Gen. K103N V108D): 1.8X fold; S.I. HCQ ([3]; Gen. K103N Y181C): 8.5; Fen. HCQ (fold) ([3]; Gen. K103N Y181C): 1.6X fold; S.I. HCQ ([3]; Gen. K103N): 8.7; Fen. HCQ (fold) ([3]; Gen. K103N): 1.8X fold; S.I. HCQ ([3]; Gen. L100I K103N): 6; Fen. HCQ (fold) ([3]; Gen. L100I K103N): 2.1X fold; S.I. HCQ ([3]; Gen. Y181C): 8.7; Fen. HCQ (fold) ([3]; Gen. Y181C): 1X fold; EC50 ([4]; Gen. G48V I84V A74V L90M): 1500 nM; EC50 ([4]; Gen. G48V V82A): 3000 nM; EC50 ([4]; Gen. I84V L90M): 2800 nM; EC50 ([4]; Gen. M46I G48V L63P L90M): 1800 nM; EC50 ([4]; Gen. V82A L90M): 1800 nM; S.I. HCQ ([4]; Gen. G48V I84V A74V L90M): 4; Fen. HCQ (fold) ([4]; Gen. G48V I84V A74V L90M): 0.8X fold; S.I. HCQ ([4]; Gen. G48V V82A): 3; Fen. HCQ (fold) ([4]; Gen. G48V V82A): 1.6X fold; S.I. HCQ ([4]; Gen. I84V L90M): 3; Fen. HCQ (fold) ([4]; Gen. I84V L90M): 1.5X fold; S.I. HCQ ([4]; Gen. M46I G48V L63P L90M): 6; Fen. HCQ (fold) ([4]; Gen. M46I G48V L63P L90M): 1X fold; S.I. HCQ ([4]; Gen. V82A L90M): 5.5; Fen. HCQ (fold) ([4]; Gen. V82A L90M): 1X fold; S.I. HCQ ([5]; Gen. D30N A71V): 4; Fen. HCQ (fold) ([5]; Gen. D30N A71V): 1.2X fold; S.I. HCQ ([5]; Gen. D30N M46V A71V): 5.5; Fen. HCQ (fold) ([5]; Gen. D30N M46V A71V): 1X fold; S.I. HCQ ([5]; Gen. G48V V92A): 3.3; Fen. HCQ (fold) ([5]; Gen. G48V V92A): 1.6X fold; S.I. HCQ ([5]; Gen. V82F L90M): 3.6; Fen. HCQ (fold) ([5]; Gen. V82F L90M): 1.3X fold; EC50 ([5]; Gen. D30N A71V): 2200 nM; EC50 ([5]; Gen. D30N M46V A71V): 1800 nM; EC50 ([5]; Gen. G48V V92A): 3000 nM; EC50 ([5]; Gen. V82F L90M): 2500 nM; S.I. HCQ ([6]; Gen. D30N): 4.4; Fen. HCQ (fold) ([6]; Gen. D30N): 1.2X fold; S.I. HCQ ([6]; Gen. V82A): 5.5; Fen. HCQ (fold) ([6]; Gen. V82A): 1.3X fold; EC50 ([6]; Gen. D30N): 2200 nM; EC50 ([6]; Gen. V82A): 2500 nM; decrement of plasmatic HIV-RNA (HIV-1; 22 patients): 1.3 logs; tolerability (HIV-1): well tolerated
